Data as given in article PMC12113681, “Discovery, Biological Evaluation and Binding Mode Investigation of Novel Butyrylcholinesterase Inhibitors Through Hybrid Virtual Screening” (Molecules, 2025).
Entries after “also recorded” stand apart in the source; their conditions may differ. Read-outs that look alike come from different tables or passages of the source.

Tests used:
[1] = molecular target: T1, BChE (horse-serum, E.C. 3.1.1.8) (Equus caballus, UniProt P81908); experiment: biochemical
T1 construct: Sigma, St. Louis, MO, USA, horse-serum, E.C; 3.1.1.8; purchased Sigma; host or cells: horse serum
T1 sequence (P81908 whole entry): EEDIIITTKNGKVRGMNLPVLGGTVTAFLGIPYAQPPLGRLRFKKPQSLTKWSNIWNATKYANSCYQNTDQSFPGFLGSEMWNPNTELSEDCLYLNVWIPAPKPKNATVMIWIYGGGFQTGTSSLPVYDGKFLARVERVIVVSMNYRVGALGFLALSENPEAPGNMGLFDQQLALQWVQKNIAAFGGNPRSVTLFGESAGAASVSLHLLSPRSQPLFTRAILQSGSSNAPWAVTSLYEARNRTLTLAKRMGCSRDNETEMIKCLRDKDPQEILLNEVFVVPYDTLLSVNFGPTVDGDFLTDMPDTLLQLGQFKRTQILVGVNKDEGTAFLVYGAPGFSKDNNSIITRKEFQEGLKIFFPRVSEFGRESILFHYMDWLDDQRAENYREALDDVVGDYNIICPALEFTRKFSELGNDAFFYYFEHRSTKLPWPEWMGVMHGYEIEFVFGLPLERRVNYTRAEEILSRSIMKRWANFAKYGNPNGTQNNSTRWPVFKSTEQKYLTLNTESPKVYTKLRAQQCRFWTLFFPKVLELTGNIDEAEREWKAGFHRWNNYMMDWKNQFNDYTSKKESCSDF
Experimental: The inhibitory activity of BChE was evaluated using 96-well plates on a microplate reader (Varioskan LUX, Thermo Fisher, Waltham, MA, USA) based on a modified Ellman method. Briefly, 25 μL of BChE solution (0.2 U·mL^−1, Sigma, St. Louis, MO, USA, horse-serum, E.C. 3.1.1.8) was combined with 65 μL of phosphate buffer (PBS, 0.1 M, pH 8.0), 125 μL of 5,5′-dithio-bis(2-nitrobenzoic acid) (DTNB, 3 mM), and 10 μL of a test compound at varying concentrations. Small molecules (50 mM, Topscience) were initially dissolved in dimethyl sulfoxide (DMSO) and subsequently diluted to desired concentrations using PBS. The reaction mixture was preincubated at 37 °C for 20 min. Following this, 25 μL of butyrylthiocholine iodide (BTC, 15 mM) was added, and the absorbance was measured at 412 nm in 30-s intervals for 3 min.

PC12 cells [2] = experiment: in vitro; conditions: PC-12 cells
Experimental: (§1) Well-differentiated rat adrenal pheochromocytoma cells (PC12) and the corresponding culture medium (WHAA24F163) were obtained from Procell Life Technology Co., Ltd. (Wuhan, China). The culture medium was supplemented with 10% fetal bovine serum (FBS, 164210-50) and 1% antibiotics (a penicillin–streptomycin mixture). PC12 cells were seeded into sterile 96-well plates at a density of 7000 cells per well (100 μL) and incubated for 24 h in a humidified incubator at 37 °C with 5% CO2. Subsequently, the cells were treated with varying concentrations of the test compounds (10, 20, and 50 μM in 100 μL) and cultured for an additional 24 h. Cell viability was assessed using the 3-(4,5-dimethylthiazol-2-yl)-2,5-diphenyltetrazolium bromide (MTT) assay (Xavier, Wuhan, China), following protocols described in a prior study.

PC12 cells [3] = experiment: Neuroprotection in H2O2-induced injury model, MTT assay; format: cell-based; conditions: for neuroprotective activity: 5 to 50 μM; for viability at 50 µM: Rattus norvegicus, PC-12, read-out: cell viability
Experimental: To assess the neuroprotective potential of the compounds, an H2O2-induced injury model in PC12 cells was established. PC12 cells were seeded into 96-well plates and incubated for 24 h, as described previously. […].

BChE [4] = molecular target: T2, BChE (Equus caballus, UniProt P81908); experiment: Fluorescence quenching experiment (Stern-Volmer, Van't Hoff analysis); format: binding; conditions: for quenching rate constant (Kq): τ0 10^−8 s; for Kd: Ka (binding constant); for ∆H / ∆S: Van't Hoff, 298-310 K, regarded as a constant
T2 sequence (P81908 whole entry): as above
Experimental: Then, the Stern–Volmer Equation (1) was applied to analyze their quenching mechanisms.
Their binding constants (Ka) and binding sites (n) (Table 4) with BChE were calculated using the double logarithmic Equation (2) (Figure 5G,H).
Thermodynamic parameter analysis offers valuable insights into the predominant interaction forces governing the binding process between ligand and protein, which may encompass hydrogen bonding, electrostatic interactions, hydrophobic effects, van der Waals forces, and π-effects. By applying the Van’t Hoff Equation (3) and the Gibbs–Helmholtz Equation (4), the thermodynamic parameters—including change (ΔS), enthalpy change (ΔH), and Gibbs free energy change (ΔG)—for the interactions of piboserod and Rotigotine at various temperatures.
Fluorescence quenching experiment. The fluorescence intensity of the inhibitor–BChE complex was measured using a microplate reader with an all-black 96-well plate at three different temperatures (298, 304, and 310 K). The excitation wavelength was set to 280 nm, and the emission spectrum was scanned over the range of 320–460 nm with a slit width of 5 nm. The BChE concentration was maintained constant at 5 U·mL^−1, while the compound concentration was varied in a gradient (0 to 50 μM). After mixing the compound and BChE, the samples were incubated at the designated temperature for 30 min prior to measurement. A PBS solution was used as a blank to account for background fluorescence and ensure accurate correction of the fluorescence intensity measurements.

BChE [5] = molecular target: T2, BChE; experiment: BChE enzyme kinetic study (Lineweaver-Burk); format: biochemical; design: Sigma, St. Louis, MO, USA, horse-serum, E.C; 3.1.1.8; purchased Sigma; host or cells: horse serum; conditions: for inhibition type: Lineweaver-Burk plots; for reversibility of inhibition: plots of v vs [BChE] at different inhibitor concentrations
Experimental: Kinetic studies were performed to clarify the inhibition mechanism of piboserod and Rotigotine. Figure 4A,B illustrates the relationship between BChE concentration ([BChE]) and catalytic rate (v) at different inhibitor concentrations ([I]). […] Lineweaver–Burk plots were used to characterize their inhibition types. […]. The inhibition constant (Ki) values were calculated based on Lineweaver–Burk secondary plots (Figure 4C,D). […]. […].
Kinetic studies were conducted to measure reaction rates using the same methodology as in the enzyme inhibition experiments. […]. The relationship between reaction rates and enzyme concentrations was used to assess whether the inhibition was reversible. Additionally, reaction rates (v, △OD417 ·min^−1) were measured at a constant BChE concentration (0.2 U·mL^−1) while varying substrate concentrations (0.05, 0.1, 0.2, 0.4, 0.8 mM). A double-reciprocal Lineweaver–Burk plot of reaction rate versus substrate concentration was generated to elucidate the inhibition type based on the intersection points of the curves. Common inhibition types were identified as follows: competitive (intersects on the Y-axis), non-competitive (intersects on the X-axis), uncompetitive (parallel lines), and mixed (intersects in the second or third quadrant). […]

in vitro = conditions: rat
Experimental: as §1

[6] = PC-12 cells, hydrogen peroxide injury

Row | SMILES | IC50 [1] | neuroprotective activity (PC12 cells [3]; [6]) | viability at 50 µM (PC12 cells [3]) | Ksv (BChE [4]; 298 K) | n (binding sites) (BChE [4]; 298 K) | ∆G (BChE [4]; 298 K) | quenching rate constant (Kq) (BChE [4]; 298 K) | Ksv (BChE [4]; 304 K) | n (binding sites) (BChE [4]; 304 K) | ∆G (BChE [4]; 304 K) | Ksv (BChE [4]; 310 K) | n (binding sites) (BChE [4]; 310 K) | Kd (BChE [4]; 298 K) | Kd (BChE [4]; 304 K) | Kd (BChE [4]; 310 K) | ∆H (BChE [4]) | ∆S (BChE [4]) | Ki (BChE [5]) | inhibition type (BChE [5]) | reversibility of inhibition (BChE [5]) | further results
1 | COc1cc2c(NC3CCN(C)CC3)nc(N3CCCN(C)CC3)nc2cc1OCc1ccccc1 [TM2-115] | – | – | – | – | – | – | – | – | – | – | – | – | – | – | – | – | – | – | – | – | IC50 ([1]; read-out: IC50): ~50 µM
2 | CN1C[C@H](CNC(=O)OCc2ccccc2)C[C@@H]2c3cccc4c3c(cn4C)C[C@H]21 [Metergoline] | 18.4 ± 3.29 µM | – | – | – | – | – | – | – | – | – | – | – | – | – | – | – | – | – | – | – | neurotoxicity (PC12 cells [2]; lowest concentration (10 μM)): no neurotoxicity; cytotoxicity (PC12 cells [2]; maximum concentration): higher cytotoxicity than that of Tacrine; neuroprotective effect (PC12 cells [3]; PC-12 cells, hydrogen peroxide injury, low concentrations (5–10 μM)): modest neuroprotective effects
3 | CCCN(CCc1cccs1)[C@H]1CCc2c(O)cccc2C1 [Rotigotine] | 12.8 ± 4.22 µM | significant neuroprotective activities | 70% | 2640 L/mol | 1.066 | -5.067 kcal/mol | 2.64e+11 M⁻¹ s⁻¹ | 2250 L/mol | 1.022 | -4.787 kcal/mol | 1540 L/mol | 0.975 | 19.7 µM | 34.5 µM | 68.1 µM | -18.98 kcal/mol | −195.34 J·mol^−1·K^−1 | 6.76 µM | non-competitive inhibitor; also recorded: non-competitive inhibition | reversibly inhibit BChE | –
4 | Nc1c2c(nc3ccccc13)CCCC2 [Tacrine] | – | – | – | – | – | – | – | – | – | – | – | – | – | – | – | – | – | – | – | – | viability at 50 µM (in vitro): 65%
5 | CCCCN1CCC(CNC(=O)c2c3n(c4ccccc24)CCCO3)CC1 [piboserod] | 15.3 ± 3.84 µM | significant neuroprotective activities | 66% | 5250 L/mol | 1.052 | -5.373 kcal/mol | 5.25e+11 M⁻¹ s⁻¹ | 4720 L/mol | 1.035 | -5.308 kcal/mol | 4250 L/mol | 1.014 | 11.6 µM | 14.9 µM | 20.4 µM | -8.549 kcal/mol | −44.61 J·mol^−1·K^−1 | 10.7 µM | mixed inhibitor; also recorded: mixed-type inhibition | reversibly inhibit BChE | ∆G (BChE [4]; 310 K): -5.244 kcal/mol; α value (ratio of non-competitive to competitive inhibition constants) (BChE [5]; Lineweaver-Burk secondary plots): 3.01
